Patent publication US7053175B1, “Synthetic peptides useful in biological assays for detecting infections caused by group O HIV-1 viruses” (Bio-Rad Pasteur, priority 1997, dated 2006)

System: sera from patients infected with group O HIV-1 retroviruses
Experiment: Immunoenzymatic test: Test No. 1 (immunoreactivity of peptides coated on microplates)
Format: binding, human
Parameters: key to ABSORBANCE: >: signal greater than the reading capacity of the spectrophotometer
Details: for ABSORBANCE: cyclized peptide 2 μg/ml; for immunoreactivity compared with the other peptides (in words): summary of Table IV
Protocol: The sera used ESS, DUR, VAU and HAD are sera from French patients infected with group O HIV-1 retroviruses. The other serum samples from patients infected with group O HIV-1 retroviruses were obtained by the Yaoundé Pasteur Centre in Cameroon and were serotyped group O according to the serological algorithm described in AIDS (1977), 11, pp 445-453.
The HIV-negative sera (n=48) were obtained from healthy volunteers.
The synthetic peptides used were dissolved in water at a concentration of 1 mg/ml (stock solution). For the solid phase sensitization step (coating), 110 μl of a solution at 2 μg/ml of each peptide (obtained by diluting the stock solution with 0.1 M carbonate buffer solution) were added to each well of the microtitre plates Microtiter™ (NUNC). After incubating overnight at room temperature, the microplates were first washed with a Tris-NaCl buffer solution pH 7.4 containing 0.1% of Tween® 20 and 0.001% sodium merthiolate, and then saturated with a PBS solution containing 0.5% of Régilait™ (dried skimmed milk). After aspirating the saturating solution, the plates were heated for 10 min at 50° C.
The serum samples were diluted 1/5 with a skimmed milk solution (citrate buffer supplemented with 0.01% of phenol red, 0.25% of chloroform and 0.25% of Kathon®), deposited in the wells of the plates and incubated for 30 min at 40° C.
After washing with a Tris-NaCl buffer solution pH 7.4 containing 0.1% of Tween® 20 and 0.001% of sodium merthiolate, 100 μl of a solution of conjugate consisting of horseradish peroxidase-labelled anti-human IgG and IgM goat antibodies, containing as preservative 0.01% of sodium merthiolate, in solution in a citrate buffer solution supplemented with 30% glycerol and 25% normal foetal calf serum, were added to each plate well and then the plates were incubated for 30 min at 40° C.
After washing with a Tris-NaCl buffer solution pH 7.4 containing 0.1% of Tween® 20 and 0.001% of sodium merthiolate, the colour was developed by adding, to each well, 100 μl of O-phenylenediamine in solution in hydrogen peroxide. The microplates were then incubated for 30 min at room temperature and in the dark. The coloured reaction was then stopped by addition of 100 μl of 4N sulphuric acid. The absorbance (A) was determined at 490 and 620 nm.
The relative absorbance (A490-A620) read in each well is proportional to the immunoreactivity of each peptide. It indicates the ability of each peptide to react with the biological sample with which the test is carried out. The cut-off value was determined as being an absorbance equal to 0.15. It corresponds to the mean of the negative values (n=48) plus 12 standard deviations.
The reactivity of the peptides of the invention (peptide No. 3 (4B), peptide No. 2 (3B) and peptide No. 1 (2B), all in cyclized form), was compared with that of two synthetic peptides having, as sequence, a portion of the natural sequence of the envelope (env) of the VAU isolate (group O HIV-1 retrovirus) and comprising an immunodominant epitope of gp41.
For the study, these peptides were used in cyclized form.

LLSLWGCRGKAVCYTSVQWNET [PEPTIDE No. 1 (2B)]
ABSORBANCE (serum 134): > | ABSORBANCE (serum 402): > | ABSORBANCE (serum 625): > | ABSORBANCE (serum 1062): > | ABSORBANCE (serum 1105*): > | ABSORBANCE (serum 1581): > | ABSORBANCE (serum 1702): 1.162 | ABSORBANCE (serum 1754): > | ABSORBANCE (serum 2294): 0.447 | ABSORBANCE (serum 2312): > | ABSORBANCE (serum 2313): > | ABSORBANCE (serum 2352): 0.205 | ABSORBANCE (serum 2551): > | ABSORBANCE (serum 2700): > | ABSORBANCE (serum 3016): 0.243 | ABSORBANCE (serum 3136): 0.302 | ABSORBANCE (serum 3235): > | ABSORBANCE (serum 3236): > | ABSORBANCE (serum 3302): 0.386 | ABSORBANCE (serum 3482): 1.473 | ABSORBANCE (serum 3529): 1.803 | ABSORBANCE (serum 3600*): 2.743 | ABSORBANCE (serum 3627*): 2.910 | ABSORBANCE (serum 3637): > | ABSORBANCE (serum 3653): 0.044 | ABSORBANCE (serum 3771): 0.544 | ABSORBANCE (serum 3884*): 1.839 | ABSORBANCE (serum 3891): 2.780 | ABSORBANCE (serum 3935): 0.307 | ABSORBANCE (serum 3945): > | ABSORBANCE (serum 4021*): > | ABSORBANCE (serum 4288*): 2.802 | ABSORBANCE (serum 4364): 1.382 | ABSORBANCE (serum 4434): > | ABSORBANCE (serum 4477): > | ABSORBANCE (serum 4489*): > | ABSORBANCE (serum 5149*): > | ABSORBANCE (serum 5164): > | ABSORBANCE (serum 5210): > | ABSORBANCE (serum 5270*): > | ABSORBANCE (serum 5373): > | ABSORBANCE (serum 5453): > | ABSORBANCE (serum 5766*): > | ABSORBANCE (serum 5931): > | ABSORBANCE (serum 5969*): > | ABSORBANCE (serum 6111): > | ABSORBANCE (serum 6165): 2.714 | ABSORBANCE (serum 6198*): > | ABSORBANCE (serum 6295*): > | ABSORBANCE (serum 6487): 2.687 | ABSORBANCE (serum 6512*): > | ABSORBANCE (serum 6627): > | ABSORBANCE (serum 6689*): > | ABSORBANCE (serum 6697): > | ABSORBANCE (serum 6782): 2.462 | ABSORBANCE (serum 6891): 0.062 | ABSORBANCE (serum 6976*): > | ABSORBANCE (serum 6998): > | ABSORBANCE (serum 7007): > | ABSORBANCE (serum 7120): > | ABSORBANCE (serum 7212): > | ABSORBANCE (serum 7258*): 2.477 | ABSORBANCE (serum 7297*): > | ABSORBANCE (serum 7439): > | ABSORBANCE (serum 7443): > | ABSORBANCE (serum DUR*): > | ABSORBANCE (serum ESS*): 2.494 | ABSORBANCE (serum HAD): 0.041 | ABSORBANCE (serum VAU*): > | immunoreactivity compared with the other peptides (in words): more immunoreactive than the VAU 22 AA peptide

LLSSWGCKGRLVCYTSVQWNET [PEPTIDE No. 3 (4B)]
ABSORBANCE (serum 134): > | ABSORBANCE (serum 402): > | ABSORBANCE (serum 625): > | ABSORBANCE (serum 1062): > | ABSORBANCE (serum 1105*): 1.421 | ABSORBANCE (serum 1581): > | ABSORBANCE (serum 1702): > | ABSORBANCE (serum 1754): > | ABSORBANCE (serum 2294): > | ABSORBANCE (serum 2312): > | ABSORBANCE (serum 2313): > | ABSORBANCE (serum 2352): > | ABSORBANCE (serum 2551): > | ABSORBANCE (serum 2700): > | ABSORBANCE (serum 3016): > | ABSORBANCE (serum 3136): > | ABSORBANCE (serum 3235): > | ABSORBANCE (serum 3236): > | ABSORBANCE (serum 3302): > | ABSORBANCE (serum 3482): 2.402 | ABSORBANCE (serum 3529): > | ABSORBANCE (serum 3600*): > | ABSORBANCE (serum 3627*): > | ABSORBANCE (serum 3637): > | ABSORBANCE (serum 3653): 1.352 | ABSORBANCE (serum 3771): > | ABSORBANCE (serum 3884*): > | ABSORBANCE (serum 3891): > | ABSORBANCE (serum 3935): > | ABSORBANCE (serum 3945): > | ABSORBANCE (serum 4021*): 0.430 | ABSORBANCE (serum 4288*): > | ABSORBANCE (serum 4364): > | ABSORBANCE (serum 4434): > | ABSORBANCE (serum 4477): > | ABSORBANCE (serum 4489*): > | ABSORBANCE (serum 5149*): > | ABSORBANCE (serum 5164): > | ABSORBANCE (serum 5210): > | ABSORBANCE (serum 5270*): > | ABSORBANCE (serum 5373): > | ABSORBANCE (serum 5453): 0.555 | ABSORBANCE (serum 5766*): > | ABSORBANCE (serum 5931): > | ABSORBANCE (serum 5969*): > | ABSORBANCE (serum 6111): > | ABSORBANCE (serum 6165): > | ABSORBANCE (serum 6198*): > | ABSORBANCE (serum 6295*): 1.718 | ABSORBANCE (serum 6487): > | ABSORBANCE (serum 6512*): 0.746 | ABSORBANCE (serum 6627): > | ABSORBANCE (serum 6689*): 0.710 | ABSORBANCE (serum 6697): > | ABSORBANCE (serum 6782): > | ABSORBANCE (serum 6891): > | ABSORBANCE (serum 6976*): > | ABSORBANCE (serum 6998): > | ABSORBANCE (serum 7007): 2.136 | ABSORBANCE (serum 7120): > | ABSORBANCE (serum 7212): > | ABSORBANCE (serum 7258*): > | ABSORBANCE (serum 7297*): > | ABSORBANCE (serum 7439): > | ABSORBANCE (serum 7443): > | ABSORBANCE (serum DUR*): > | ABSORBANCE (serum ESS*): >** | ABSORBANCE (serum HAD): > | ABSORBANCE (serum VAU*): 1.342 | immunoreactivity compared with the other peptides (in words): best performance
